# Laboratory results as given in US20230086702A1, “SUBSTITUTED 2-AMINO-PYRAZOLYL-[1,2,4]TRIAZOLO[1,5A]PYRIDINE DERIVATIVES AND USE THEREOF” (The Johns Hopkins University, priority 2019, published 2023).
# Key:
# [1] = tested on: retinal ganglion cells (RGCs); experiment: Optic nerve crush, RGC survival (RBPMS staining); format: in vivo, C57B6/J animals; conditions: intravitreal injection of 8 mM, second injection 4 days later, two weeks after optic nerve crush, vs vehicle (FIG. 3)
# Description: Inhibition of DLK and LZK can reduce the neuronal injury response and result in the protection of various neuronal populations from degeneration. Cells can be immunostained for p-cJun S73 (p-JUN), which is an indicator of DLK pathway activation. Accordingly, decreased p-JUN staining compared to a control can be indicative of inhibition of DLK pathway activation. RBPMS can be used to mark retinal ganglion cells (RGCs) and show changes in cell survival (e.g., increased RBPMS staining compared to a control can indicate increased cell survival).
# Unilateral optic nerve crush was performed on C57B6/J animals between 6 and 8 weeks of age, followed by intravitreal injection of 8 mM of I-106. A second injection was performed 4 days later. Two weeks after optic nerve crush, animals were sacrificed and retinas were immunostained for RBPMS. Confocal microscopy was used to image RGCs and ImageJ was used to quantify the density of RGCs.
# Mice were intravitreally injected with 1 μL of vehicle (DMSO), 100 mM I-81, or 300 mM I-81 immediately following optic nerve crush injury. Retinas were extracted 1 month later and immunofluorescently labelled with anti-RBPMS to mark RGCs, anti-phosphorylated JUN (P-JUN) to examine DLK/JNK pathway induction, and Tuj1 to visualize axons (see FIG. 9).
# DLK = target: T1, DLK (Homo sapiens, UniProt Q12852); experiment: DLK biochemical assay (TR-FRET, MKK7 phosphorylation); conditions: DLK catalytic domain, MKK7 substrate, 60 μM ATP
# T1 construct: 10 nM DLK, catalytic domain, Carna Biosiences; purchased Carna Biosciences ('Carna Biosiences' [sic])
# T1 sequence (Q12852 125-366 limits assumed): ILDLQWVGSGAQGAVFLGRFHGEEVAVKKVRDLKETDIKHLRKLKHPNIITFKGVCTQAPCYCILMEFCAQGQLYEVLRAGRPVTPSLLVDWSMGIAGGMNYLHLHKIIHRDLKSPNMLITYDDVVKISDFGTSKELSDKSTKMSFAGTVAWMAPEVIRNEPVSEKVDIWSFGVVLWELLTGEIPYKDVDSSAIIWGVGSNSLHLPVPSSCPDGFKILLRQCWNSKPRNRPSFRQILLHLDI
# In short: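 TR-FRET read-out (ratio of 665 nm acceptor to Eu donor channel) tracks MKK7 T275/S277 phosphorylation by DLK, using Eu-labelled anti-phospho-MKK7 and XL665-labelled anti-His on His-MKK7. Reactions were stopped and detected in pH 7.5 Tris buffer containing 100 mM EDTA, 100 mM NaCl, 200 mM KF and 0.01% Tween 20.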
# LZK = target: T2, LZK (Homo sapiens, UniProt O43283); experiment: LZK biochemical assay (TR-FRET, MKK7 phosphorylation); conditions: LZK catalytic domain, MKK7 substrate, 15 μM ATP
# T2 construct: 10 nM LZK, catalytic domain, Carna Biosiences in assay buffer; purchased Carna Biosciences ('Carna Biosiences' [sic])
# T2 sequence (O43283 168-409 limits assumed): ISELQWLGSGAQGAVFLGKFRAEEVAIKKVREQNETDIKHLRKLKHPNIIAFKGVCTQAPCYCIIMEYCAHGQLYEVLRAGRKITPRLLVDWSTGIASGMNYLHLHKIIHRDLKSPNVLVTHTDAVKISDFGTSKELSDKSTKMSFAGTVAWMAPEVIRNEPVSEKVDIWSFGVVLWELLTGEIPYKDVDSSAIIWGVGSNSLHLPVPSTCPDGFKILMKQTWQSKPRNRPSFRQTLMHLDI
IC50 (DLK) [nM],IC50 (LZK) [nM],Structure (SMILES),survival of RGCs (density of RBPMS) [1]
0.5,1.1,"CC[C@H](C)NC(=O)c1cc(-c2cnn(C(c3ccc(C(F)(F)F)nc3)C3CCOCC3)c2)cn2nc(N)nc12 (mixture of isomers) [Example I-76, 2-Amino-N-[(2S)-butan-2-yl]-6-(1-{tetrahydro-2H-pyran-4-yl[6-(trifluoromethyl)pyridin-3-yl]methyl}-1H-pyrazol-4-yl)[1,2,4]triazolo[1,5-a]pyridine-8-carboxamide]",–
0.7,1.7,"CC[C@H](C)NC(=O)c1cc(-c2cnn(C(c3ccc(C(F)(F)F)nc3)C3CCOCC3)c2)cn2nc(N)nc12 (single isomer, unassigned) [Example I-78]",–
85,240,"Nc1nc2c(C(=O)NC3CCC3)cc(-c3cnn(Cc4ccc(F)cc4)c3)cn2n1 [Example I-132, 2-Amino-N-cyclobutyl-6-{1-[(4-fluorophenyl)methyl]-1H-pyrazol-4-yl}[1,2,4]triazolo[1,5-a]pyridine-8-carboxamide]",–
0.8,2.3,"Nc1nc2cc(-c3cnn(C(c4ccc(C(F)(F)F)nc4)C4CCOCC4)c3)cc(C(=O)N[C@H]3CCOC3)n2n1 (single isomer, unassigned) [Example I-185]",–
25,40,"CC[C@H](C)NC(=O)c1cc(-c2cnn(Cc3ccc(C(F)(F)F)cc3)c2)cn2nc(N)nc12 (single isomer, unassigned) [Example I-46]",–
1.7,64,"CC(CF)NC(=O)c1cc(-c2cnn(C(c3ccccc3)C(C)C)c2)cn2nc(N)nc12 (single isomer, unassigned) [Example I-139, 2-Amino-N-(1-fluoropropan-2-yl)-6-{1-[2-methyl-1-phenylpropyl]-1H-pyrazol-4-yl}[1,2,4]triazolo[1,5-a]pyridine-8-carboxamide]",–
1.6,5.8,"CC[C@H](C)NC(=O)c1cc(-c2cnn(C(c3ccc(C(F)(F)F)nc3)C(C)C)c2)cn2nc(N)nc12 (mixture of isomers) [Example I-73, 2-Amino-N-[(2S)-butan-2-yl]-6-(1-{2-methyl-1-[6-(trifluoromethyl)pyridin-3-yl]propyl}-1H-pyrazol-4-yl)[1,2,4]triazolo[1,5-a]pyridine-8-carboxamide]",–
68,9.4,"CC[C@H](C)NC(=O)c1cc(-c2cnn(C3CCN(C4COC4)CC3)c2)cn2nc(N)nc12 (single isomer, unassigned) [Example I-8]",–
85,150,"CCC(c1ccc(OC(F)(F)F)nc1)n1cc(-c2cc(C(=O)NC(C)(C)CO)c3nc(N)nn3c2)cn1 (single isomer, unassigned) [Example I-171, 2-Amino-N-(1-hydroxy-2-methylpropan-2-yl)-6-(1-{1-[6-(trifluoromethoxy)pyridin-3-yl]propyl}-1H-pyrazol-4-yl)[1,2,4]triazolo[1,5-a]pyridine-8-carboxamide]",–
5.9,170,"CC[C@H](C)NC(=O)c1cc(-c2cnn(C(c3c(F)cncc3F)C(C)C)c2)cc2nc(N)nn12 (mixture of isomers) [Example I-123, 2-Amino-N-[(2S)-butan-2-yl]-7-{1-[1-(3,5-difluoropyridin-4-yl)-2-methylpropyl]-1H-pyrazol-4-yl}[1,2,4]triazolo[1,5-a]pyridine-5-carboxamide]",–
2.8,26,"CC[C@H](C)NC(=O)c1cc(-c2cnn(C(COC)c3ccccc3)c2)cn2nc(N)nc12 (single isomer, unassigned) [Example I-41]",–
97,83,CC[C@H](C)NC(=O)c1cc(-c2cnn(CC3CC3)c2)cn2nc(N)nc12 [Example I-1],–
6.5,60,"CC[C@@H](c1ccc(F)cc1)n1cc(-c2cc(C(=O)NC(C)CF)n3nc(N)nc3c2)cn1 (single isomer, unassigned) [Example I-150, 2-Amino-7-{1-[(15)-1-(4-fluorophenyl)propyl]-1H-pyrazol-4-yl}-N-(1-fluoropropan-2-yl)[1,2,4]triazolo[1,5-a]pyridine-5-carboxamide]",–
5.7,13,"CCC(c1ccc(OC(F)(F)F)nc1)n1cc(-c2cc(C(=O)N[C@@H](C)CO)c3nc(N)nn3c2)cn1 (mixture of isomers) [Example I-157, 2-Amino-N-[(2S)-1-hydroxypropan-2-yl]-6-(1-{1-[6-(trifluoromethoxy)pyridin-3-yl]propyl}-1H-pyrazol-4-yl)[1,2,4]triazolo[1,5-a]pyridine-8-carboxamide]",–
8.6,7.3,"CC[C@H](C)NC(=O)c1cc(-c2cnn(C(c3ccc(C(F)F)nc3)C3CC3)c2)cc2nc(N)nn12 (mixture of isomers) [Example I-98, 2-Amino-N-[(2S)-butan-2-yl]-7-(1-{cyclopropyl[6-(difluoromethyl)pyridin-3-yl]methyl}-1H-pyrazol-4-yl)[1,2,4]triazolo[1,5-a]pyridine-5-carboxamide]",–

Structure (SMILES),IC50 (DLK) [nM],IC50 (LZK) [nM],survival of RGCs (density of RBPMS) [1]
"CC[C@H](C)NC(=O)c1cc(-c2cnn([C@H](c3ccc(C(F)(F)F)nc3)C(C)C)c2)cc2nc(N)nn12 (single isomer, unassigned) [Example I-106]",1,1.6,promoted survival of RGCs following optic nerve crush
